Source: article PMC10244445, “Molecular basis for the recognition of 24-(S)-hydroxycholesterol by integrin αvβ3” (Scientific Reports, 2023)
Like-named read-outs stand apart in the source and are kept apart here.

Molecular target: T1, integrin αvβ3 (Homo sapiens, UniProt P05106+P06756)
T1 construct: gene ITGAV; purified human αvβ3 Integrin; with integrin αv subunit (ITGAV, P06756)
Assay: SPR (Biacore S200, integrin immobilized on CM5 chip, steady-state model)
Type: binding

T1 sequence (P06756 31-889): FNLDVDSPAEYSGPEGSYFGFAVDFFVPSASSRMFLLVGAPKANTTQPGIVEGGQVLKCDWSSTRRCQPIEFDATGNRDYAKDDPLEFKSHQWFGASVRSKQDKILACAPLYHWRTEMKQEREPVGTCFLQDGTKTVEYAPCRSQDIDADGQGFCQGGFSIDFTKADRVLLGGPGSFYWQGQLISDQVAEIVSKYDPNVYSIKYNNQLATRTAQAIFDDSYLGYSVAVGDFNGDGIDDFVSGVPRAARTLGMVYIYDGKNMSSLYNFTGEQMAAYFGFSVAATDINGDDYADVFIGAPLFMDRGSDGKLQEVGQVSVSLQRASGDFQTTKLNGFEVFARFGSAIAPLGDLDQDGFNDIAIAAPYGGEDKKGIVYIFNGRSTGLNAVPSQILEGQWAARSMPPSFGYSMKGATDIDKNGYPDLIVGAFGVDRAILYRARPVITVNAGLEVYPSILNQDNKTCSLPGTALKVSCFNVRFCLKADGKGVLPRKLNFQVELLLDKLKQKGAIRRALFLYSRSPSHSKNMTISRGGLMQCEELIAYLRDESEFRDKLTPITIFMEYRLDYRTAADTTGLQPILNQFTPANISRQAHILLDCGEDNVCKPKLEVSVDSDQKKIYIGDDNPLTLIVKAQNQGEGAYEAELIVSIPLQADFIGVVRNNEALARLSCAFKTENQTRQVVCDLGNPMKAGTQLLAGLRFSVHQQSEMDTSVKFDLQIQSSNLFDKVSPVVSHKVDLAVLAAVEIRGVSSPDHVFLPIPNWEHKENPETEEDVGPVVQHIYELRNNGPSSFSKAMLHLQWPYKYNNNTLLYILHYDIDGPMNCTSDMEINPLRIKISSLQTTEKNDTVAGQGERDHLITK
T1 sequence (P06756 891-1048): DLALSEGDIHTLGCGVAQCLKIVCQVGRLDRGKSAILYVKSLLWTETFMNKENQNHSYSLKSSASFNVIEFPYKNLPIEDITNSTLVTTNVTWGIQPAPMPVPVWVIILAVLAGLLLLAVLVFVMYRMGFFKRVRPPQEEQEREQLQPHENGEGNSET
T1 sequence (P05106 27-788): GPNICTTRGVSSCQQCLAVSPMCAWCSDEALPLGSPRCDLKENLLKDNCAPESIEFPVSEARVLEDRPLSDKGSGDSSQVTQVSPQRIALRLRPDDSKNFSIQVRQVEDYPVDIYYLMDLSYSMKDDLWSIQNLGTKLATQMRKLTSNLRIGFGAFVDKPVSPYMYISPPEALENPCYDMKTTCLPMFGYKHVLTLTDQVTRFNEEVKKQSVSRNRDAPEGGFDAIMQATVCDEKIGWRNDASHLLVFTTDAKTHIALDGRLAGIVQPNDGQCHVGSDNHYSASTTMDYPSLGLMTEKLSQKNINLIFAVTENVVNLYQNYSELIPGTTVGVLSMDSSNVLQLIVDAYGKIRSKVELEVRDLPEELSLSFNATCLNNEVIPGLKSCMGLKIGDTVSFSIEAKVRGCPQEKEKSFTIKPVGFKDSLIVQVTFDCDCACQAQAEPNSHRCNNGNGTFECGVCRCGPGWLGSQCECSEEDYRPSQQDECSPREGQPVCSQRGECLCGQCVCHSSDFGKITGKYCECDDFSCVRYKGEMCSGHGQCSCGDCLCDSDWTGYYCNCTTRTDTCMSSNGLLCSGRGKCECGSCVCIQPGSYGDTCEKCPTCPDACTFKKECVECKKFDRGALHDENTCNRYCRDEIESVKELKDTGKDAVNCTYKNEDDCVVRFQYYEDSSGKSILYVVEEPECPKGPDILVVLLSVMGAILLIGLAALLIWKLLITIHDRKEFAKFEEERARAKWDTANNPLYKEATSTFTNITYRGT

Structure (SMILES) | Kd [nM] | Kd (read-out: Kd) [nM]
CC(C)[C@@H](O)CC[C@@H](C)[C@H]1CC[C@H]2[C@@H]3CC=C4C[C@@H](O)CC[C@]4(C)[C@H]3CC[C@]12C [24HC, 24-(S)-hydroxycholesterol] | 151 | –
C[C@H](CCCC(C)(C)O)[C@H]1CC[C@H]2[C@@H]3CC=C4C[C@@H](O)CC[C@]4(C)[C@H]3CC[C@]12C [25HC, 25-hydroxycholesterol] | – | 56.6
